SMILES strings stand for the structures.

The target of this test is T1, bovine serum albumin (BSA) (Bos taurus, UniProt P02769).
T1 construct: gene ALB; commercial native serum albumin (Sigma Aldrich, named for the FT-IR work), mature protein 583 residues, no tags
T1 sequence (P02769 25-607): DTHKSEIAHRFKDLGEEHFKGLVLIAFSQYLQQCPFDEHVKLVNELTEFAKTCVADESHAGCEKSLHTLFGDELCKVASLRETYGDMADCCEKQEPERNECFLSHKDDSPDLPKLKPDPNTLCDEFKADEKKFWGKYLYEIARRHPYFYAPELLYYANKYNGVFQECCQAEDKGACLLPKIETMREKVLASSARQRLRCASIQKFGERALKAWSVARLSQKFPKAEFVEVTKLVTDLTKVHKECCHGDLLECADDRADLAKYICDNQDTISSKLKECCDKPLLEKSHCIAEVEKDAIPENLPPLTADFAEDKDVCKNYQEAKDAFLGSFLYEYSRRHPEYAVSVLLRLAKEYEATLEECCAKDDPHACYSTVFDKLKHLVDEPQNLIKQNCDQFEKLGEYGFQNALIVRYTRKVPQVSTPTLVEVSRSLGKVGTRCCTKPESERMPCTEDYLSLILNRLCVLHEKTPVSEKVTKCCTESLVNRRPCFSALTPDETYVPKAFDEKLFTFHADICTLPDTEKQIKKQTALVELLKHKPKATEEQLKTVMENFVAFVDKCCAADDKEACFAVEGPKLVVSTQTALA
The experiment in a line: intrinsic fluorescence quenching (ex […] nm). It counts as binding. To be noted: […] K, pH […] BSA; static quenching; n about […]; subdomain IIIA by site markers; double-log.
`CCCCn1c(C)c2c(OCc3nn(CN4CCN(c5ccccc5)CC4)c(=S)n3C)nn(C)c(=O)c2c1C` [4a, 6-butyl-3,5,7-trimethyl-1-[[4-methyl-2-[(4-phenylpiperazin-1-yl)methyl]-3-thioxo-2H-1,2,4-triazol-5-yl]methoxy]pyrrolo[3,4-d]pyridazin-4-one]: the “Binding / Kb × 10^4 [dm^3mol^-1]” value is recorded as 8.91 × 10^4 dm^3 mol^-1. To `CCCCn1c(C)c2c(OCc3nn(CN4CCN(c5ccccc5)CC4)c(=S)n3-c3ccccc3)nn(C)c(=O)c2c1C` [4b, 6-butyl-3,5,7-trimethyl-1-[[4-phenyl-2-[(4-phenylpiperazin-1-yl)methyl]-3-thioxo-2H-1,2,4-triazol-5-yl]methoxy]pyrrolo[3,4-d]pyridazin-4-one] belongs 6.61 × 10^4 dm^3 mol^-1; to `CCCCn1c(C)c2c(OCc3nn(CN4CCN(c5cccc(C(F)(F)F)c5)CC4)c(=S)n3C)nn(C)c(=O)c2c1C` [5a, 6-butyl-3,5,7-trimethyl-1-[[4-methyl-2-[[4-[3-(trifluoromethyl)phenyl]piperazin-1-yl]methyl]-3-thioxo-2H-1,2,4-triazol-5-yl]methoxy]pyrrolo[3,4-d]pyridazin-4-one], 8.13 × 10^4 dm^3 mol^-1; to `CCCCn1c(C)c2c(OCc3nn(CN4CCN(c5cccc(C(F)(F)F)c5)CC4)c(=S)n3-c3ccccc3)nn(C)c(=O)c2c1C` [5b, 6-butyl-3,5,7-trimethyl-1-[[4-phenyl-2-[[4-[3-(trifluoromethyl)phenyl]piperazin-1-yl]methyl]-3-thioxo-2H-1,2,4-triazol-5-yl]methoxy]pyrrolo[3,4-d]pyridazin-4-one], 5.75 × 10^4 dm^3 mol^-1. As for `CCCCn1c(C)c2c(OCc3nn(CN4CCN(c5cccc(C(F)(F)F)c5)CC4)c(=S)n3-c3ccc(OC)cc3)nn(C)c(=O)c2c1C` [5c, 6-butyl-1-[[4-(4-methoxyphenyl)-2-[[4-[3-(trifluoromethyl)phenyl]piperazin-1-yl]methyl]-3-thioxo-2H-1,2,4-triazol-5-yl]methoxy]-3,5,7-trimethyl-pyrrolo[3,4-d]pyridazin-4-one], the figure is 9.33 × 10^4 dm^3 mol^-1; as for `CCCCn1c(C)c2c(OCc3nn(CN4CCN(c5ccc(C)cc5)CC4)c(=S)n3C)nn(C)c(=O)c2c1C` [6a, 6-butyl-3,5,7-trimethyl-1-[[4-methyl-2-[[4-[(4-methyl)phenyl]piperazin-1-yl]methyl]-3-thioxo-2H-1,2,4-triazol-5-yl]methoxy]pyrrolo[3,4-d]pyridazin-4-one], 4.90 × 10^4 dm^3 mol^-1; as for `CCCCn1c(C)c2c(OCc3nn(CN4CCN(c5ccc(C)cc5)CC4)c(=S)n3-c3ccccc3)nn(C)c(=O)c2c1C` [6b, 6-butyl-3,5,7-trimethyl-1-[[4-phenyl-2-[[4-[(4-methyl)phenyl]piperazin-1-yl]methyl]-3-thioxo-2H-1,2,4-triazol-5-yl]methoxy]pyrrolo[3,4-d]pyridazin-4-one], 8.13 × 10^4 dm^3 mol^-1. To `CCCCn1c(C)c2c(OCc3nn(CN4CCN(c5ccc(C)cc5)CC4)c(=S)n3-c3ccc(OC)cc3)nn(C)c(=O)c2c1C` [6c, 6-butyl-1-[[4-(4-methoxyphenyl)-2-[[4-[(4-methyl)phenyl]piperazin-1-yl]methyl]-3-thioxo-2H-1,2,4-triazol-5-yl]methoxy]-3,5,7-trimethyl-pyrrolo[3,4-d]pyridazin-4-one] belongs 9.55 × 10^4 dm^3 mol^-1. Regarding `CCCCn1c(C)c2c(OCc3nnc(SCC(=O)N4CCN(c5ccccc5)CC4)n3C)nn(C)c(=O)c2c1C` [7a, 6-butyl-3,5,7-trimethyl-1-[[4-methyl-3-[2-oxo-2-(4-phenylpiperazin-1-yl)ethyl]sulfanyl-2H-1,2,4-triazol-5-yl]methoxy]pyrrolo[3,4-d]pyridazin-4-one], the “Binding / Kb × 10^4 [dm^3mol^-1]” value is recorded as 4.68 × 10^4 dm^3 mol^-1. As for `CCCCn1c(C)c2c(OCc3nnc(SCC(=O)N4CCN(c5ccccc5)CC4)n3-c3ccccc3)nn(C)c(=O)c2c1C` [7b, 6-butyl-3,5,7-trimethyl-1-[[4-phenyl-3-[2-oxo-2-(4-phenylpiperazin-1-yl)ethyl]sulfanyl-2H-1,2,4-triazol-5-yl]methoxy]pyrrolo[3,4-d]pyridazin-4-one], the figure is 9.33 × 10^4 dm^3 mol^-1; as for `CCCCn1c(C)c2c(OCc3nnc(SCC(=O)N4CCN(c5ccccc5)CC4)n3-c3ccc(OC)cc3)nn(C)c(=O)c2c1C` [7c, 6-butyl-3,5,7-trimethyl-1-[[4-(4-methoxy)phenyl-3-[2-oxo-2-(4-phenylpiperazin-1-yl)ethyl]sulfanyl-2H-1,2,4-triazol-5-yl]methoxy]pyrrolo[3,4-d]pyridazin-4-one], 9.33 × 10^4 dm^3 mol^-1.
